We go through 14 compounds from PubChem BioAssay (NCI).

Converted amounts (≈) assume the structure as drawn.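 Following 48 hours of exposure in 96-well plates, responses at five concentrations were used to interpolate endpoints linearly. GI50 = concentration required for 50% inhibition of growth. The concentration for full growth arrest is given as TGI.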 A value given as a limit tells only on which side of the number the result lay.

Holding throughout (assay): inhibition of tumour cell growth, NCI panel, 48 h
Assay [1] has as its system CAKI-1 renal.
Assay [2] has as its system DU-145 prostate.
For assay [3], the system named is HCC-2998 colon.
Assay [4] concerns HCT-116 colon.
Assay [5] concerns LOX IMVI melanoma.
Assay [6] concerns MALME-3M melanoma.
Assay [7] has as its system NCI-H226 lung.
For assay [8], the system named is RXF 393 renal.
Assay [9] deals with SW-620 colon.
The subject of assay [10] is UO-31 renal.

As for `NCCNc1nc(N2CCCC2)c2nc(Cl)c(NCc3ccccc3)nc2n1`, the TGI was found to be 15.2 µM in [1]; 3.55 µM in assay [2]; 2.88 µM in assay [3]; 2.93 µM in assay [4]; 3.06 µM in assay [5]; 3.73 µM in [6]. The TGI in [7] is 15.7 µM; in assay [8], 2.91 µM; in assay [9] it was 4.73 µM; in [10], 3.32 µM.

As to `CC1(C)CC(=O)C2=C(C1)NC(SSC1=C(C#N)C(c3ccc(F)cc3)C3=C(CC(C)(C)CC3=O)N1)=C(C#N)C2c1ccc(F)cc1` (centres undefined), the GI50 is 29.5 µg/mL (≈ 45 µM) in assay [1]; 15 µg/mL (≈ 22.9 µM) in assay [2]; 26.5 µg/mL (≈ 40.5 µM) in [4]; 30.5 µg/mL (≈ 46.5 µM) in assay [5]; 31.8 µg/mL (≈ 48.5 µM) in assay [6]; 21.4 µg/mL (≈ 32.7 µM) in [8]. In addition, the values for the GI50 in assay [9] and in [10] were 6.93 µg/mL (≈ 10.6 µM) and 32 µg/mL (≈ 48.9 µM), respectively. For the same compound, the TGI in assay [1] was 50.7 µg/mL; in assay [2], 15 µg/mL; in [4], 47.3 µg/mL; in assay [5] it was 63.3 µg/mL; in [6], 56.6 µg/mL; in assay [8], 41.1 µg/mL. For the same compound, the TGI amounted to 25 µg/mL in assay [9] and 74.9 µg/mL in assay [10].

For the compound `N#CC(c1ccccc1)N1CCCN(C(C#N)c2ccccc2)C1c1ccccc1O` (centres undefined), the TGI in [1], in assay [2], in assay [3], in assay [4], in [5] and in assay [6] was above 100 µM each time. The TGI in [7], in [8], in assay [9] and in assay [10] was above 100 µM in each case.

Regarding `Nc1ccc2c(c1)C(=O)N(O)C2=O`, the TGI in assay [3], in assay [4], in assay [5], in [6], in [7] and in [8] was above 100 µM throughout. The TGI in [9] and in [10] was above 100 µM each time.

`O=C(O)C(CSC(c1ccccc1)(c1ccccc1)c1ccccc1)N=Cc1cccs1` (centres undefined): the TGI was above 54.7 µM in [1]; above 38.1 µM in assay [2]; 27.7 µM in [3]; above 56.2 µM in [4]; above 59.8 µM in [5]; above 69.5 µM in assay [6]. Moreover, the TGI is above 96.7 µM in assay [7], above 19.6 µM in assay [8], above 100 µM in assay [9] and above 100 µM in assay [10].

With `COC(=O)C1C(C)N1C` (centres undefined), the TGI in [3], in assay [5], in assay [7], in assay [8] and in [9] was above 100 µM in each case.

Consider `O=C(CCN1CC2CCC(CC2)C1)c1cccs1`, for which the TGI was 34.5 µM in [1]; 33.8 µM in assay [2]; 29 µM in assay [3]; 42 µM in assay [4]; 27.7 µM in assay [5]; 39.3 µM in [6]. For the same compound, the TGI in assay [7] was above 100 µM; in [8], 37 µM; in assay [9] it was 12.2 µM; in [10], 23.9 µM.

In the case of `CCC(C)C1NC(=O)C2CCCN2C(=O)C(CC2CO2)OC(=O)CCNC(=O)C(C)N(C)C(=O)C(C(C)C)N(C)C1=O` (centres undefined), the TGI in [1] is above 100 µM; in assay [2] it was above 100 µM; in assay [3], above 100 µM; in assay [5], 0.118 µM; in [6], 0.0641 µM; in assay [7], above 17.1 µM. Further, the figures for the TGI in assay [8], in [9] and in assay [10] were above 100 µM, above 100 µM and 15 µM, respectively.

`C[C@]12CC[C@@H]3c4ccccc4CC[C@H]3[C@@H]1CC[C@@H]2O`: the TGI in [3], in [4], in assay [5], in [6], in assay [8] and in assay [9] was above 100 µM each time. The same compound registered a TGI in [10] above 100 µM.

With `O=S(=O)(O)c1cccc2c(N=Nc3c(O)ccc4ccccc34)cccc12`, the TGI in [1], in [2], in assay [4], in [5], in assay [6] and in assay [7] was above 100 µM throughout. The TGI in assay [8], in [9] and in [10] was above 100 µM in each case.

For `CN1C2CCC1C(C(O)c1ccccc1[N+](=O)[O-])C(=O)C2` (centres undefined), the TGI in assay [1] is above 100 µM; in [2], 86.8 µM; in assay [3] it was above 100 µM; in [4], above 100 µM; in [5], above 100 µM; in assay [6] it was above 100 µM. Besides, the values for the TGI in assay [7], in assay [9] and in assay [10] were 73.3 µM, above 100 µM and above 100 µM, respectively.

On to `CC(Sc1ccccc1)C(CO)(CO)[N+](=O)[O-]` (centres undefined), for which the TGI worked out at 33.1 µM in assay [1]; 31.5 µM in [3]; 31.6 µM in [4]; 28.2 µM in assay [5]; 38.7 µM in assay [6]; 33 µM in [7]. Besides, the TGI was 31.3 µM in assay [8], 28.4 µM in [9] and 22.6 µM in assay [10].

For the compound `COc1ccc(/C=C(\C#N)c2nc(N)nc(N3N=C(C)CC3(C)C)n2)c(O)c1`, the TGI in assay [1] turned out to be 38.1 µM; in assay [2] it was 37.7 µM; in assay [3], 38.2 µM; in assay [4], 31.4 µM; in assay [6], 31.7 µM; in [7], 35.9 µM. For the same compound, the TGI in assay [8] was found to be 33.4 µM; in [10], 36 µM.

`CC(=O)N(C)c1ccc2c(ccc[n+]2[O-])c1[N+](=O)[O-]`: the TGI in [1], in assay [3], in [4], in assay [5], in assay [6] and in [7] was above 100 µM in each case. For the same compound, the TGI in [8], in assay [9] and in [10] was above 100 µM each time.
